Experimental data published in patent US20160081901A1, “COMPOSITIONS AND METHODS FOR HAIR GROWTH” (WUHAN OPTICS VALLEY BRIDGEBIOMED INTERNATIONAL CORPORATION, priority 2013, published 2016).

Assays:
[1] = target: T1, bradykinin (BK) B2 receptors (Homo sapiens, UniProt P30411); assay: PG secretion in cell supernatant by enzyme immunoassay (EIA), relative to 1 μM bradykinin; type: cell-based; settings: for PG release (%) compared with BK-1 μM (100%): 1 h, 37° C.
T1 construct: The cell strains used in the study were human primary vein endothelial cells (HPVEC) and human aortic smooth muscle cells (HASMC); endogenous in cells; host or cells: HPVEC and HASMC (human primary cells)
T1 sequence (P30411 1-391): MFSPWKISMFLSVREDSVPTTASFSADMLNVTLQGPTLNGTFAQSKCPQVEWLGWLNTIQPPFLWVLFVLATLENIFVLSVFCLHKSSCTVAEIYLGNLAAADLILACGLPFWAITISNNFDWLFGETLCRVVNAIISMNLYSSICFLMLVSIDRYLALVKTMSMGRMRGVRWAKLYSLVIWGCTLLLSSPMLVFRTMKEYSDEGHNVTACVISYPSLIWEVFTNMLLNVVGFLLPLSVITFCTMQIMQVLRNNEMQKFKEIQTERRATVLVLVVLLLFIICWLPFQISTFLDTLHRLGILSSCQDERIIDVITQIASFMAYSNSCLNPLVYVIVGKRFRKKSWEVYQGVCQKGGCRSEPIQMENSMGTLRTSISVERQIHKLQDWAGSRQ
Protocol: We studied angiotensin II receptor antagonists activating bradykinin (BK) B2 receptors to promote secretion of Prostaglandin. Losartan, candesartan, telmisartan were selected for the study described below, and bradykinin was used as control. Implantation Two cell lines were transferred into T-75 cell culture flask, and then the instructions of PG kit were strictly followed when cells have reached the appropriate density. Day 1 Cells were seeded in 24 well dishes with minimum medium and allowed to adhere overnight. Day 2 Cells were starved in the serum-free conditioned medium. […] The supernatant was collected after incubation for later use. Day 4 24 well dishes were washed and then dyed for 45-90 min, and then the OD value was measured for analysis. Therefore OD values of BK B2 receptor agonists were obtained and the EC50, EMAX were calculated. The cell strains used in the study were human primary vein endothelial cells (HPVEC) and human aortic smooth muscle cells (HASMC).
In order to detect endogenous prostaglandin, enzyme immunoassay (EIA) was used to determine the amount of prostaglandin and subtypes thereof in the cell supernatant described above.

[2] = target: T2, B2 receptor (Homo sapiens, UniProt P30411); assay: Inhibition of PG secretion by B2 receptor inhibitor HOE-140; type: cell-based; settings: for PG synthesis blocked by 1 μM HOE-140: PG synthesis caused by 10 μM of the compound
T2 construct: The cell strains used in the study were human primary vein endothelial cells (HPVEC) and human aortic smooth muscle cells (HASMC); endogenous in cells; host or cells: HPVEC and HASMC (human primary cells)
T2 sequence (P30411 1-391): T1 sequence (P30411 1-391)
Protocol: The detailed protocol for the elucidation of inhibited PG secretion by B2 receptor inhibitor HOE-140 was shown as follows. Two different cell lines were transferred into T-75 cell culture flask, and then the instructions of PG kit were strictly followed when cells have reached the appropriate density. Day 1. Cells were seeded in 24 well dishes with minimum medium and allowed to adhere overnight. Day 2. Cells were starved in the serum-free conditioned medium. Day 3. […] Cells were incubated at 37° C. for 1 h. The supernatant was collected after incubation for later use. Day 4. 24 well dishes were washed and then dyed for 45-90 min, and then the quantitative analysis was carried out. Therefore OD values (420 nm) of BK B2 receptor agonists were obtained and the EC50, EMAX were calculated.
Therefore we could conclude the angiotensin II type 1 receptor antagonists influence PG secretion via B2 receptor since HOE-140 acts as B2 receptor antagonist

[3] = target: T2, B2 receptor; assay: PG subtype secretion (EIA) induced by Candesartan in HPVEC and HASMC; type: cell-based; settings: for PGE2 (%) / PGF-2a (%): 10 μM Candesartan
Excerpt: These percentage values above were all calibrated with respect to bradykinin.

[4] = longest of all commercially available ARBs; cited from earlier work
[5] = 10 μM, calibrated with respect to bradykinin
[6] = HASMC, calibrated with respect to bradykinin
[7] = HPVEC, calibrated with respect to bradykinin

Row | Compound | PG release (%) compared with BK-1 μM (100%) ([1]; 1 μM) [%] | PG release (%) compared with BK-1 μM (100%) ([1]; 3 μM) [%] | effect relative to the effect of 1 μM of bradykinin (PG secretion) ([1]; 10 μM) [%] | PG release (%) compared with BK-1 μM (100%) ([1]; 10 μM) [%] | effect relative to the effect of 1 μM of bradykinin (PG secretion) ([1]; 30 μM) [%] | PG release (%) compared with BK-1 μM (100%) ([1]; 30 μM) [%] | PG release (%) compared with BK-1 μM (100%) ([1]; 30 nm) [%] | PG release (%) compared with BK-1 μM (100%) ([1]; 100 nm) [%] | PG release (%) compared with BK-1 μM (100%) ([1]; 300 nm) [%] | PG relaease (%) compared with BK-1 μM (100%) ([2]; 10 μM + 1 μM HOE-140) [%] | PG relaease (%) compared with BK-1 μM (100%) ([2]; 10 μM, without HOE-140) [%] | PG synthesis blocked by 1 μM HOE-140 [2] [%] | Prostaglandin D secretion ([3]; 10 μM) | share of PG secretion that was Prostaglandin E2 [3, 5] [%] | share of PG secretion that was Prostaglandin F-2a [3, 5] | PGE2 (%) [3, 6] [%] | PGF-2a (%) [3, 6] [%] | PGE2 (%) [3, 7] [%] | PGF-2a (%) [3, 7] [%] | half-life [4]
1 | CCOc1nc2cccc(C(=O)O)c2n1Cc1ccc(-c2ccccc2-c2nn[nH]n2)cc1 [Candesartan, 2-ethoxy-1-({4-[2-(2H-1,2,3,4-tetrazol-5-yl)phenyl]phenyl}methyl)-1H-1,3-benzodiazole-7-carboxylic acid] | 16.51 ± 2.02 | 26.91 ± 4.13 | ~50 | 46.19 ± 5.65 | ~90 | 86.83 ± 7.21 | 6.21 ± 2.3 | 11.27 ± 2.74 | 12.91 ± 3.08 | 6 ± 3.12 | 46.19 ± 5.65 | 85 | no Prostaglandin D detected | 30 | roughly 6% | 37.13 ± 9.85 | 6.21 ± 2.56 | 32.54 ± 6.93 | 5.47 ± 3.32 | –
2 | CCCCc1nc(Cl)c(CO)n1Cc1ccc(-c2ccccc2-c2nn[nH]n2)cc1 [Losartan, (2-butyl-4-chloro-1-{[2′-(1H-tetrazol-5-yl)biphenyl-4-yl]methyl}-1H-imidazol-5-yl)methanol] | 8.16 ± 2.43 | 12.06 ± 4.12 | – | 23.18 ± 3.65 | ~60 | 58.17 ± 6.32 | 0.18 ± 0.74 | 2.96 ± 2.22 | 4.69 ± 1.21 | 5 ± 4.45 | 23.18 ± 3.65 | 80 | – | – | – | – | – | – | – | –
3 | CCCc1nc2c(C)cc(-c3nc4ccccc4n3C)cc2n1Cc1ccc(-c2ccccc2C(=O)O)cc1 [Telmisartan, 2-(4-{[4-methyl-6-(1-methyl-1H-1,3-benzodiazol-2-yl)-2-propyl-1H-1,3-benzodiazol-1-yl]methyl}phenyl)benzoic acid] | 9.01 ± 1.35 | 13.56 ± 1.56 | – | 14.56 ± 2.42 | ~25 | 25.46 ± 3.48 | 4.48 ± 1.54 | 4.69 ± 1.78 | 6.46 ± 3.1 | 3 ± 2.03 | 14.56 ± 2.42 | 80 | – | – | – | – | – | – | – | about 24 h
